Reference: patent publication US20230263773A1, “COMBINATION THERAPY WITH DEOXYURIDINE TRIPHOSPHATASE INHIBITORS” (CV6 Therapeutics (NI) Limited, priority 2020, published 2023)

Columns and labels:
[1] = tested on: calreticulin; test: Cell surface calreticulin by flow cytometry; type: cell-based; details: 6.25 μM Compound A, 1 μM FUdR, 500 nmol/L doxorubicin; 4 hours
From the text: Experimental Overview. Tumor cells undergoing immunogenic cell death (ICD) emit damage associated molecular patterns (DAMPs). ICD is a sub-class of cell death that results in the potent stimulation of the innate immune system and subsequently the stimulation of adaptive immune responses. The cell surface expression of calreticulin during cell death is one of several established DAMPs characteristic of immunogenic cell death. Calreticulin translocates from the endoplasmic reticulin to the cell membrane where it functions as a potent “eat me” signal for macrophages and dictates tumor antigen transfer and therefore the immunogenicity of cancer cell death. PANC1 pancreatic carcinoma cells were treated with vehicle control (DMSO), 6.25 μM Compound A, 1 μM FUdR, or the combination of 6.25 μM Compound A and 1 μM FUdR for 4 hours and the concentration of cell surface calreticulin was deteremined by flow cytometry.
Cell Line Model Selection and Preparation. The PANC1 pancreatic cancer cell line was purchased from ATCC. Cells were cultured and expanded in humidified incubators at 5% CO2 until sufficient cells were available.
Drug Preparation and Treatments. All drugs/compounds were prepared freshly in cell culture media from 50 mM frozen stocks prior to treatment. Cells were seeded in 6-well plates and permitted to adhere overnight. Media was removed and replaced with media containing 6.25 μM Compound A, 1 μM FUdR or a combination of 6.25 μM Compound A and 1 μM FUdR. […]
Detection of Cell Surface Calreticulin. Cell surface calreticulin was quantified by flow cytometry. […] Cells were counted and 300,000 cells were washed in staining buffer and incubated in Calreticulin (D3E6) XP Alexa Fluor 488 Conjugate antibody (Cell Signaling) or IgG antibody (negative control antibody) on ice for 40 minutes. […] The IgG isotype control stained sample was used to correctly identify the positively stained population in which median fluorescence intensity was determined. Median fluorescence intensity values were exported and analyzed in Microsoft Excel and GraphPad Prism 6. […]

[2] = tested on: cytoplasmic dsDNA; test: Cytoplasmic dsDNA by fluorescence microscopy; type: cell-based; details: 12.5 μM Compound A, 1 μM FUdR; 24 hours
Experimental: Experimental Overview. Aberrant host DNA metabolism as a result of failed cell division or genotoxic stress leads to the release of nuclear DNA into the cytoplasm and is a well-known damage-associated molecular pattern. The subsequent detection of cytoplasmic double-stranded DNA (dsDNA) by pattern recognition receptors triggers a variety of innate immune signaling and biological responses. HCT116 colon and PANC-1 pancreatic carcinoma cells were seeded on coverslips and treated with vehicle control (DMSO), 12.5 μM Compound A, 1 μM FUdR, or the combination of 12.5 μM Compound A and 1 μM FUdR for 24 hours. At 24 hours post-treatment cells were fixed and stained with an anti-dsDNA (double-stranded DNA) antibody and the nuclear stain DAPI. Immunofluorescence was detected and images acquired by fluorescence microscopy to quantify levels of dsDNA in the cytoplasm.
Cell lines, Drug Treatments and Fluorescence Microscopy. HCT116 colon and PANC-1 pancreatic carcinoma cells (5×10^4) were seeded onto glass coverslips within 24-well plates in relevant media. The following day, seeding media was removed and replaced with drug-containing media and incubated for 24 hours. At 24 […] hours post-treatment cells were fixed and processed. Briefly, cell membranes were permeabilised, incubated with FITC-conjugated dsDNA marker antibody (HYB331-01) from Santa Cruz Biotechnology, sc-58749 (1:500 dilution) and mounted onto slides with ProLong Gold antifade with DAPI (Invitrogen P36931). Images were acquired on a Nikon Fluorescent Microscope. Exposure time was selected for FITC using negative and positive controls and kept constant throughout image acquisition. Images were analyzed using ImageJ software. Cell nuclei were identified using DAPI staining. Intensity of cytoplasmic dsDNA staining was established by quantifying the intensity of the staining in the immediate area surrounding the nucleus. Software settings: Gaps to ring=3 and Ring size=25 (FIG. 16).

SMILES	increase in cell surface expression of calreticulin compared to control, PANC1 cells [1]	increase in mean relative cytoplasmic DNA compared to vehicle-treated control, HCT116 cells [2]	increase in mean relative cytoplasmic DNA compared to vehicle-treated control, PANC-1 cells [2]
O=c1[nH]c(=O)n([C@H]2C[C@H](O)[C@@H](CO)O2)cc1F [FUdR]	no significant difference	no statistically significant difference	56%
C[C@@H](NS(=O)(=O)CCCCCN1CC(=O)NC1=O)c1ccc(F)c(OCC2CC2)c1 [Compound A]	no significant difference	no statistically significant difference	74%
